Data as given in a melting point compilation (Tetko et al.; mined from patent text by program, amines drawn as free bases though some values may be those of a salt).

Question: Which melting point does the source give for `CC(=O)COc1ccc(CC2SC(=O)NC2=O)cc1` (stereo unspecified) here?
Answer: 158 to 159 °C

Question: Which melting point does the source give for `CN(C)CCNc1ccc(NCCCCN)c2c1C(=O)c1ccccc1C2=O` here?
Answer: 88 to 90 °C

Question: Which melting point does the source give for `CCC1C(CC)N1S(=O)(=O)c1ccc(C)cc1` (stereo unspecified) here?
Answer: 69 to 70 °C

Question: Which melting point does the source give for `Cc1nc2c(N)nc3ccccc3c2n1CCCCNC(=O)c1ccccc1` here?
Answer: 164 to 170 °C

Question: Which melting point does the source give for `O=C(O)c1nc(C(Cl)(Cl)Cl)n(-c2cccc(C(F)(F)F)c2)n1` here?
Answer: 126 °C

Question: For `O=Cc1ccc(N2C[C@H](CN3C(=O)c4ccccc4C3=O)OC2=O)cc1F`, which melting point is on record?
Answer: 167 to 169 °C

Question: Which melting point does the source give for `COC(=O)CCc1cn(Cc2ccc(O)cc2)nc1-c1ccccc1` here?
Answer: 87 to 88 °C

Question: For `CC(=O)Nc1ccc(-c2ccccc2C#N)cc1C`, which melting point is on record?
Answer: 135 to 143 °C

Question: With `COc1cc2c(c3c1OC(C)(C)C3)C(c1ccn(CC(=O)NCC(N)=O)c(=O)c1)=NC(C)(C)C2` as the compound, how does the melting point read?
Answer: 166 to 168 °C

Question: For `COc1ccc(S(=O)(=O)Nc2ncccc2/C=C/c2ccccc2)cc1`, which melting point is on record?
Answer: 152 to 155 °C

Question: With `CC(C)Nc1nc(Br)cnc1OCC(O)CBr` (stereo unspecified) as the compound, how does the melting point read?
Answer: 108 to 109 °C

Question: Which melting point does the source give for `O=C(O)c1ccc2c(c1)C(=O)C1(CC1)O2` here?
Answer: 215 to 228 °C

Question: Which melting point does the source give for `O=C(c1ccc(O)cc1)c1c(-c2ccccc2)sc2cc(O)ccc12` here?
Answer: 245 to 246 °C

Question: For `CCCCCCCCCCCCc1nnn(C(C(=O)Nc2c(OC)cc(OC)cc2OC)C(C)C)n1` (stereo unspecified), which melting point is on record?
Answer: 135 to 137 °C

Question: For `CS(=O)(=O)c1ccc(Oc2ccc(Br)cc2)cc1`, which melting point is on record?
Answer: 128 to 129 °C

Question: For `Cc1ccccc1OC(=O)N1CCCC1=O`, which melting point is on record?
Answer: 85 to 87 °C

Question: For `CCOCc1nc2c(N)nc3ccccc3c2n1CC1CCN(C)C(=O)O1` (stereo unspecified), which melting point is on record?
Answer: 192 to 194 °C

Question: Which melting point does the source give for `Cn1cc2c(c(C#N)c1=O)Nc1ccccc1S2` here?
Answer: 292 to 295 °C

Question: With `CCCc1nc(NS(=O)(=O)c2ccc(C(C)(C)C)cc2)c(-c2ccc(C)cc2)c(OCCOc2ncc(-c3cccs3)cn2)n1` as the compound, how does the melting point read?
Answer: 165 to 166 °C

Question: Which melting point does the source give for `CC1CN(C(=O)Cn2c(=O)n(C)c3nc(-c4ccccc4)ncc32)CC(C)O1` (stereo unspecified) here?
Answer: 160 to 161 °C

Question: With `CC/C(=N\OCCCOc1ccc(C(=O)O)c(NC(=O)c2ccc(C(F)(F)F)cc2)c1)c1ccc(C(C)(C)C)cc1` as the compound, how does the melting point read?
Answer: 149 to 151 °C

Question: With `COc1ccc2c(C#N)c(-c3ncc(S(=O)(=O)NC(CF)CF)cn3)n(C3CCC3)c2n1` as the compound, how does the melting point read?
Answer: 229 to 230 °C

Question: Which melting point does the source give for `COc1cc(CCCC2SC(=O)NC2=O)cc(OC)c1OCc1coc(/C=C/c2ccccc2)n1` (stereo unspecified) here?
Answer: 163 to 164 °C

Question: With `C=CCNc1nc(NCCCCCCC)c2scc(C)c2n1` as the compound, how does the melting point read?
Answer: 56 to 57 °C

Question: With `Brc1ccc(C2(c3ccccc3)OCCO2)cc1` as the compound, how does the melting point read?
Answer: 54 to 56 °C

Question: For `COC(=O)CCc1[nH]c(Cc2ccc(OCc3nc(-c4ccccc4)oc3C)cc2)nc1-c1ccccc1`, which melting point is on record?
Answer: 128 to 129 °C

Question: With `Cc1ccc(N=NN2C(C)(C)CC(O)CC2(C)C)cc1` as the compound, how does the melting point read?
Answer: 85 to 86 °C

Question: With `CC(C)(C)c1n[nH]c2c1C(C1CCCCC1)N(c1ccc(-c3ccon3)cc1)C2=O` (stereo unspecified) as the compound, how does the melting point read?
Answer: 251 to 252 °C

Question: With `N#CC1CCCCC1n1nc(-c2c(-c3ccccc3)nn3ccccc23)ccc1=O` (stereo unspecified) as the compound, how does the melting point read?
Answer: 214 °C

Question: Which melting point does the source give for `O=C(Nc1ncc(C(F)(F)F)o1)C1c2ccccc2Oc2c(F)cccc21` (racemic) here?
Answer: 228 °C

Question: For `CC(C)OC(=O)c1cc(N)ccc1Cl`, which melting point is on record?
Answer: 50.5 to 52 °C

Question: Which melting point does the source give for `CCCCCCC(=N)NC(=O)Nc1ccc(Cl)cc1` here?
Answer: 168 to 169 °C

Question: With `Cc1ccc(C(=O)c2cc(CCN(C)C)c(O)c(C(C)(C)C)c2)cc1` as the compound, how does the melting point read?
Answer: 123 to 124 °C

Question: Which melting point does the source give for `Cc1cc(F)ccc1-c1cc(-c2ccccc2)nc(C(C)C)c1C=O` here?
Answer: 110 to 112 °C

Question: Which melting point does the source give for `COc1cccc(NC(=O)NC2N=C(c3ccccc3F)c3ccccc3N(C)C2=O)c1` (stereo unspecified) here?
Answer: 271 to 273 °C

Question: Which melting point does the source give for `CCOc1ccc2[nH]c(S(=O)Cc3cccn4ccnc34)nc2c1` (stereo unspecified) here?
Answer: 186 to 188 °C

Question: Which melting point does the source give for `CCOC(=O)C(C)(C)c1ccc(OCc2ccccc2)cc1` here?
Answer: 54 to 55 °C

Question: Which melting point does the source give for `O=C(O)C1=Cc2cc(Cl)cc(C=NO)c2OC1C(F)(F)F` (stereo unspecified) here?
Answer: 247 to 248 °C

Question: For `COc1cc(Cl)cc(Cl)c1O`, which melting point is on record?
Answer: 62 °C

Question: For `CCCCCC(=O)SC1CCN(C(C(=O)C2CC2)c2ccccc2F)CC1` (stereo unspecified), which melting point is on record?
Answer: 64 to 65 °C

Question: Which melting point does the source give for `c1ccc(C2(Cc3ccncc3)c3ccccc3-c3sccc32)cc1` (stereo unspecified) here?
Answer: 88 to 92 °C

Question: Which melting point does the source give for `O=CNc1cccc(-c2ccnc3c(C(=O)c4cccs4)cnn23)c1` here?
Answer: 233 to 236 °C

Question: With `Cc1nc2ccc(C(=O)O)nc2n1Cc1ccc(Cl)cc1Cl` as the compound, how does the melting point read?
Answer: > 260 °C

Question: With `C=Cc1cc(C(C)NC(=O)OC(C)(C)C)cc(F)c1N` (stereo unspecified) as the compound, how does the melting point read?
Answer: 59 to 61 °C

Question: With `Cc1ccc(C(=O)CC(C)C(=O)O)cc1` (stereo unspecified) as the compound, how does the melting point read?
Answer: 168 to 170 °C

Question: Which melting point does the source give for `CCCCCCCc1ccc(NC(=O)Nc2ccccc2C(=O)NC2CCN(C(c3ccccc3)c3ccccc3)CC2)cc1` here?
Answer: 173 to 175 °C

Question: For `CCCCCCC(O)CC(=O)O` (stereo unspecified), which melting point is on record?
Answer: 49.3 to 50 °C

Question: Which melting point does the source give for `c1ccc2c(c1)CCCc1c-2n[nH]c1-c1ccncc1` here?
Answer: 217 to 219 °C

Question: With `COC(=O)C1(N)C(=O)Nc2ccccc2CC1c1ccccc1` (stereo unspecified) as the compound, how does the melting point read?
Answer: 201 °C

Question: With `CNC(=O)C1=C(C(=O)Nc2cc(OC3CCCC3)c(Cl)cc2F)CCCC1` as the compound, how does the melting point read?
Answer: 179 to 180 °C

Question: Which melting point does the source give for `CNc1sc2c(c1C(=O)c1ccccc1)CCCC2` here?
Answer: 128 to 130 °C

Question: Which melting point does the source give for `Nc1nc(NCCc2ccc(CCC3CCCCC3)cc2)nc2c1ncn2C1OC(CO)C(O)C1O` (stereo unspecified) here?
Answer: 154 to 160 °C

Question: For `CCOC(C)OCC(O)CN1C(CO)=Cc2ccsc2S1(=O)=O` (stereo unspecified), which melting point is on record?
Answer: 95 to 97 °C

Question: With `C[C@H](NC(=O)Cc1cccc(F)c1)C(=O)N[C@@H]1C(=O)Nc2ccccc2O[C@@H]1c1ccccc1` as the compound, how does the melting point read?
Answer: 130 to 140 °C

Question: For `NS(=O)(=O)Oc1ccc([N+](=O)[O-])c(C(F)(F)F)c1`, which melting point is on record?
Answer: 95 to 97 °C

Question: For `O=C(O)CCCc1cccc2c1OC=CO2`, which melting point is on record?
Answer: 75 to 76 °C

Question: For `Cc1nn(-c2ccc(C#N)c(Cl)c2)c(C)c1Oc1ccc(C(=O)N2CCOCC2)cc1`, which melting point is on record?
Answer: 156 to 157 °C

Question: Which melting point does the source give for `CCOC(=O)c1c(C)nn(C)c1S(N)(=O)=O` here?
Answer: 112 to 113 °C

Question: With `COCCc1nc2c(N)nc3ccccc3c2n1CCOCCCc1ccccc1` as the compound, how does the melting point read?
Answer: 104 °C

Question: Which melting point does the source give for `CCOc1ccc(Oc2ccc(OCc3cc(F)ccc3F)cc2)c(N)c1` here?
Answer: 72 to 73.5 °C

Question: With `CC(C)NC(=O)c1ccc(-c2ccc3nnn(Cc4ccc5ncccc5c4)c3n2)cc1` as the compound, how does the melting point read?
Answer: 181 to 183 °C

Question: For `CC1SC(C(=O)Nc2ccc(CN3CCOC3=O)cc2)Cc2cc3c(cc2C1=O)OCO3` (stereo unspecified), which melting point is on record?
Answer: 231 to 233 °C

Question: Which melting point does the source give for `COc1cc2nc(-c3cc(C)c(O)c(C)c3)[nH]c(=O)c2c(OC)c1CN1CCOCC1` here?
Answer: 237 to 239 °C

Question: With `CCCCCNC(=O)[C@@H](Cc1ccc(OCC(=O)O)c(C(=O)O)c1)NC(=O)Cc1ccccc1OC` as the compound, how does the melting point read?
Answer: 146 to 148 °C

Question: Which melting point does the source give for `CCn1cc(C(=O)O)c(=O)c2cc(F)c(N3CCN(C(=O)OC(OC(=O)c4ccccc4)C(=O)OC(C)C)CC3)cc21` (stereo unspecified) here?
Answer: 135 to 143 °C

Question: With `OC(COc1ccc(-c2ccccc2I)cc1)CN1CCCC1` (stereo unspecified) as the compound, how does the melting point read?
Answer: 72 to 76 °C

Question: Which melting point does the source give for `Cn1nc(Nc2cc(-c3ccc4c(c3)NC(=O)C4)cn3ccnc23)cc1C(C)(C)O` here?
Answer: 180 to 182 °C

Question: With `CCOC(=O)C(C)CNc1c(C#N)cnn1-c1c(F)c(F)c(CC)c(F)c1F` (stereo unspecified) as the compound, how does the melting point read?
Answer: 76 to 78 °C

Question: Which melting point does the source give for `O=C(CCC1CCN(Cc2ccccc2)CC1)c1ccc(Nc2ncnc3c2CCC3O)cc1` (stereo unspecified) here?
Answer: 189 to 190 °C

Question: With `CC(=O)c1csc2ccc(OS(=O)(=O)c3ccccc3)cc12` as the compound, how does the melting point read?
Answer: 129 to 130 °C

Question: Which melting point does the source give for `CCCCCCCCOc1cnc(-c2ccc(C#CCCCC(C)OC(C)=O)cc2)nc1` (stereo unspecified) here?
Answer: 58 to 59 °C
